Source: ChEMBL document CHEMBL4732174, “Discovery of 6-(7-Nitro-2,1,3-benzoxadiazol-4-ylthio)hexanol Derivatives as Glutathione Transferase Inhibitors with Favorable Selectivity and Tolerated Toxicity” (J Med Chem, 2021)
Converted amounts (≈) assume the structure as drawn.

What was measured:
143B [1] = assay: Induction of cell cycle arrest in human 143B cells assessed as accumulation at G2 phase at 2.5 uM incubated for 48 hrs by propidium iodide staining based flow cytometry (reference value: 1.35 %); format: functional
[2] = Toxicity in BALB/c nude mouse xenografted with human 143B cells assessed as cellular inflammation in lung at 5 to 20 mg/kg, po administered once daily for 28 consecutive days by hematoxylin-eosin staining based assay; format: organism-based; settings: in vivo, 672 h, dose 5-20 mg/kg, time 28 day
143B [3] = assay: Antiproliferative activity against human 143B cells assessed as inhibition of cell proliferation incubated for 72 hrs by MTT assay; format: functional, cell-based
[4] = Toxicity in BALB/c nude mouse xenografted with human 143B cells assessed as necrosis in heart at 5 to 20 mg/kg, po administered once daily for 28 consecutive days by hematoxylin-eosin staining based assay; format: organism-based; settings: in vivo, 672 h, dose 5-20 mg/kg, time 28 day
143B [5] = assay: Induction of apoptosis in human 143B cells assessed as apoptotic cells at 10 uM incubated for 24 hrs by Annexin V-FITC/PI double staining based flow cytometric analysis (reference value: 3.9%); format: functional
in vivo [6] = settings: Sprague-Dawley, rat, po, 80 mg/kg
Description: Cmax in Sprague-Dawley rat at 80 mg/kg, po administered as single dose measured upto 48 hrs by LC-MS/MS analysis

143B [7] = assay: Induction of cell cycle arrest in human 143B cells assessed as accumulation at G2 phase at 5 uM incubated for 48 hrs by propidium iodide staining based flow cytometry (reference value: 1.35 %); format: functional
[8] = Toxicity in BALB/c nude mouse xenografted with human 143B cells assessed as cellular inflammation in liver at 5 to 20 mg/kg, po administered once daily for 28 consecutive days by hematoxylin-eosin staining based assay; format: organism-based; settings: in vivo, 672 h, dose 5-20 mg/kg, time 28 day
A549 = assay: Antiproliferative activity against human A549 cells assessed as inhibition of cell proliferation incubated for 72 hrs by MTT assay; format: functional, cell-based; settings: A549, 72 h
143B [9] = assay: Induction of cell cycle arrest in human 143B cells assessed as accumulation at G1 phase at 5 uM incubated for 48 hrs by propidium iodide staining based flow cytometry (reference value: 66.62 %); format: functional
143B [10] = assay: Induction of cell cycle arrest in human 143B cells assessed as accumulation at S phase at 5 uM incubated for 48 hrs by propidium iodide staining based flow cytometry (reference value: 32.03 %); format: functional
[11] = Toxicity in BALB/c nude mouse xenografted with human 143B cells assessed as lung edema at 5 to 20 mg/kg, po administered once daily for 28 consecutive days by hematoxylin-eosin staining based assay; format: organism-based; settings: in vivo, 672 h, dose 5-20 mg/kg, time 28 day
in vivo [12] = settings: Sprague-Dawley, rat, po, 80 mg/kg; remark: listed apart in the source
Description: Terminal half life in Sprague-Dawley rat at 80 mg/kg, po administered as single dose measured upto 48 hrs by LC-MS/MS analysis

liver carboxylesterase = target: T1, liver carboxylesterase (Sus scrofa, UniProt Q29550); assay: Stability of the compound assessed as pig liver carboxylesterase-mediated compound hydrolysis at 10 mM measured after 24 hrs by HPLC analysis; format: ADME; settings: read-out: Drug degradation
T1 sequence (Q29550 whole entry): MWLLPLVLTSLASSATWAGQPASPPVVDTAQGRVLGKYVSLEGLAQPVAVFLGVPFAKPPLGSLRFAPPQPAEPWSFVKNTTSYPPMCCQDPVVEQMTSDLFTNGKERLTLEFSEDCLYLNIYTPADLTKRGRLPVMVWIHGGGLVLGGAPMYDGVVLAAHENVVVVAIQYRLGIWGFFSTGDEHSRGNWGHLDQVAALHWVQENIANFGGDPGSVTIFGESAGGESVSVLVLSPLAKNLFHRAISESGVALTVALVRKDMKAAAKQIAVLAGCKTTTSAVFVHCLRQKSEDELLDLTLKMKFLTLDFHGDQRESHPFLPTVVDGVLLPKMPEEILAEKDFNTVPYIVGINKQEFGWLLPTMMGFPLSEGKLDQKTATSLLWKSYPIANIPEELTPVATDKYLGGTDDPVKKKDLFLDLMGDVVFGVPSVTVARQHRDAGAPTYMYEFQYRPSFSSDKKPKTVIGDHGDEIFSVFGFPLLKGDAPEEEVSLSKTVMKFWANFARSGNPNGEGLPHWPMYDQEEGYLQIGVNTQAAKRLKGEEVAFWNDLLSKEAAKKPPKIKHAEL

[13] = Toxicity in BALB/c nude mouse xenografted with human 143B cells assessed as cellular inflammation in spleen at 5 to 20 mg/kg, po administered once daily for 28 consecutive days by hematoxylin-eosin staining based assay; format: organism-based; settings: in vivo, 672 h, dose 5-20 mg/kg, time 28 day
143B [14] = assay: Antitumor activity against human 143B cells xenografted in BALB/c nude mouse assessed as tumor growth inhibition at 20 mg/kg, po administered once daily for 28 consecutive days relative to control; format: functional; settings: 672 h, time 28 day, read-out: TGI
[15] = Toxicity in BALB/c nude mouse xenografted with human 143B cells assessed as necrosis in liver at 5 to 20 mg/kg, po administered once daily for 28 consecutive days by hematoxylin-eosin staining based assay; format: organism-based; settings: in vivo, 672 h, dose 5-20 mg/kg, time 28 day
[16] = Toxicity in BALB/c nude mouse xenografted with human 143B cells assessed as heart edema at 5 to 20 mg/kg, po administered once daily for 28 consecutive days by hematoxylin-eosin staining based assay; format: organism-based; settings: in vivo, 672 h, dose 5-20 mg/kg, time 28 day
[17] = Water solubility of the compound measured by UV-Visible spectral analysis; format: physicochemical; settings: water; read-out: solubility
[18] = rat, in vivo, po, 80 mg/kg, 48 h
Description: Plasma clearance in Sprague-Dawley rat at 80 mg/kg, po administered as single dose measured upto 48 hrs by LC-MS/MS analysis

[19] = target: T2, Glutathione S-transferase P (Homo sapiens, UniProt P09211); settings: dose 0.1-5 µM
Target sequence in this assay (P09211 2-210 limits assumed): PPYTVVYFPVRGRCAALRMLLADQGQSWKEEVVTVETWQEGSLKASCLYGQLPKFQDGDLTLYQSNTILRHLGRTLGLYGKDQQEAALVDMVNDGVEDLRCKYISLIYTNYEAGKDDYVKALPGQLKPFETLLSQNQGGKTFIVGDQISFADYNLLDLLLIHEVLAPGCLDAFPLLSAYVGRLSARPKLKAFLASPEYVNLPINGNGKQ

[20] = Toxicity in BALB/c nude mouse xenografted with human 143B cells assessed as liver edema at 5 to 20 mg/kg, po administered once daily for 28 consecutive days by hematoxylin-eosin staining based assay; format: organism-based; settings: in vivo, 672 h, dose 5-20 mg/kg, time 28 day
143B [21] = assay: Induction of apoptosis in human 143B cells assessed as apoptotic cells at 5 uM incubated for 24 hrs by Annexin V-FITC/PI double staining based flow cytometric analysis (reference value: 3.9%); format: functional
143B [22] = assay: Induction of cell cycle arrest in human 143B cells assessed as accumulation at G1 phase at 10 uM incubated for 48 hrs by propidium iodide staining based flow cytometry (reference value: 66.62 %); format: functional
[23] = target: T3, Glutathione S-transferase Mu 2 (Homo sapiens, UniProt P28161); assay: Inhibition of GSTM2-2 (unknown origin) using reduced GSH and CDNB as substrate incubated for 10 mins followed by substrate addition by microplate reader analysis
T3 sequence (P28161 whole entry): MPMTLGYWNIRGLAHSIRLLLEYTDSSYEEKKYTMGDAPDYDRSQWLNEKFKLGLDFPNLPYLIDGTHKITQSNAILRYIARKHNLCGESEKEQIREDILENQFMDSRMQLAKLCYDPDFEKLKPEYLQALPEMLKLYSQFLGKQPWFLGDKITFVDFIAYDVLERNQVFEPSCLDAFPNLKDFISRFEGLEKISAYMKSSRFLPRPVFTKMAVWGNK

[24] = Toxicity in BALB/c nude mouse xenografted with human 143B cells assessed as necrosis in kidney at 5 to 20 mg/kg, po administered once daily for 28 consecutive days by hematoxylin-eosin staining based assay; format: organism-based; settings: in vivo, 672 h, dose 5-20 mg/kg, time 28 day
[25] = target: T2, Glutathione S-transferase P; assay: Inhibition of GSTP1-1 (unknown origin) using reduced GSH and CDNB as substrate incubated for 10 mins followed by substrate addition by microplate reader analysis
Target sequence in this assay (P09211 whole entry): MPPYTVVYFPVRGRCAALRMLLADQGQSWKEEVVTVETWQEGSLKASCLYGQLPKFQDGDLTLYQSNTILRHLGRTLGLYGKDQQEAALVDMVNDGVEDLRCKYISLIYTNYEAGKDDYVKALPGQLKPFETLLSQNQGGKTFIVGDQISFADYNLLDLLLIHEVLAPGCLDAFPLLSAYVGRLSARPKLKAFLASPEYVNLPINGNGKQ

- Cmax at 48 h (in vivo [6]): 1810 ng/mL
- IC50 (A549): 1580 nM
- half-life at 48 h (in vivo [12]): 7.28 h
- metabolised at 24 h, 10000 µM (liver carboxylesterase): 45%
- solubility [17]: 9000 µg/mL (≈ 18.7 mM)
- CL [18]: 64.2 mL/min/kg
- Kinact [19]: 0.17 min⁻¹
- IC50 [23]: 90 nM
- IC50 [25]: 160 nM
Compound: CN(C)CCCNC(=O)CCC(=O)OCCCCCCSc1ccc([N+](=O)[O-])c2nonc12
- Activity (143B [1]): 9.46%
- Activity [2]: Non-Toxic
- IC50 (143B [3]): 1180 nM
- Activity [4]: Non-Toxic
- Activity (143B [5]): 84%
- Activity (143B [7]): 15.24%
- Activity [8]: Non-Toxic
- Activity (143B [9]): 49.82%
- Activity (143B [10]): 34.94%
- Activity [11]: Non-Toxic
- Activity [13]: Non-Toxic
- inhibition in vivo at 20 mg/kg (143B [14]): 74.5%
- Activity [15]: Non-Toxic
- Activity [16]: Non-Toxic
- Activity [20]: Non-Toxic
- Activity (143B [21]): 74%
- Activity (143B [22]): 48.67%
- Activity [24]: Non-Toxic
